From PubChem BioAssay AID2060621 (Molecular Pharmacology Branch, DTP, NCI, 2025)

Tested on: 324938-238-R-J1-PDC complex spheroids viability
Assay: Anticancer human tumor 324938-238-R-J1-PDC patient-derived bladder carcinoma cell line growth inhibition [CLK]
Settings: for IC50: curve of first compound; for viability, T/C: stronger effect = lower value; active = viability on the fitted dose curve at most 10% of control; inactive = the rest
How it was run: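 Multi-cell-type spheroids combined patient-derived tumor cells with HUVEC endothelial cells and human mesenchymal stem cells. Paired agents were dosed in half-log steps down from about clinical Cmax, or from 10 microM where Cmax was unknown.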

[1] = second compound 0.0316 µM, first compound 0.0316 µM
[2] = second compound 0.0316 µM, first compound 0.1 µM
[3] = second compound 0.0316 µM, first compound 0.316 µM
[4] = second compound 0.0316 µM, first compound 1 µM
[5] = second compound 0.0316 µM, first compound 3.16 µM
[6] = second compound 0.0316 µM, first compound 10 µM
[7] = second compound 0.1 µM, first compound 0.0316 µM
[8] = second compound 0.1 µM, first compound 0.1 µM
[9] = second compound 0.1 µM, first compound 0.316 µM
[10] = second compound 0.1 µM, first compound 1 µM
[11] = second compound 0.1 µM, first compound 3.16 µM
[12] = second compound 0.1 µM, first compound 10 µM
[13] = second compound 0.316 µM, first compound 0.0316 µM
[14] = second compound 0.316 µM, first compound 0.1 µM
[15] = second compound 0.316 µM, first compound 0.316 µM
[16] = second compound 0.316 µM, first compound 1 µM
[17] = second compound 0.316 µM, first compound 3.16 µM
[18] = second compound 0.316 µM, first compound 10 µM
[19] = second compound 1 µM, first compound 0.0316 µM
[20] = second compound 1 µM, first compound 0.1 µM
[21] = second compound 1 µM, first compound 0.316 µM
[22] = second compound 1 µM, first compound 1 µM
[23] = second compound 1 µM, first compound 3.16 µM
[24] = second compound 1 µM, first compound 10 µM
[25] = second compound 3.16 µM, first compound 0.0316 µM
[26] = second compound 3.16 µM, first compound 0.1 µM
[27] = second compound 3.16 µM, first compound 0.316 µM
[28] = second compound 3.16 µM, first compound 1 µM
[29] = second compound 3.16 µM, first compound 3.16 µM
[30] = second compound 3.16 µM, first compound 10 µM
[31] = second compound 10 µM, first compound 0.0316 µM
[32] = second compound 10 µM, first compound 0.1 µM
[33] = second compound 10 µM, first compound 0.316 µM
[34] = second compound 10 µM, first compound 1 µM
[35] = second compound 10 µM, first compound 3.16 µM
[36] = second compound 10 µM, first compound 10 µM
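Also: viability read after seven days of drug exposure.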
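For viability, T/C in this document: 100% = DMSO vehicle control wells.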

COc1ccc([C@@H](O)c2cc(-c3ncnc4cc(N5CCOCC5)ccc34)c(F)cc2Cl)nn1 + CN1CCN(c2cc(C(=O)Nc3cc4cc(-c5cnn(C)c5)ccc4cn3)ccn2)CC1
inactive: viability, T/C [1] 72% | viability, T/C [2] 78.8% | viability, T/C [3] 65.8% | viability, T/C [4] 59.8% | viability, T/C [5] 44.1% | viability, T/C [6] 34.7% | viability, T/C [7] 53% | viability, T/C [8] 48% | viability, T/C [9] 40.3% | viability, T/C [10] 44.5% | viability, T/C [11] 37.8% | viability, T/C [12] 30.9% | viability, T/C [13] 19.6% | viability, T/C [14] 21.9% | viability, T/C [15] 21.4% | viability, T/C [16] 20.2% | viability, T/C [17] 19% | viability, T/C [18] 18.9%
active: viability, T/C [19] 0.42% | viability, T/C [20] 0.46% | viability, T/C [21] 0.79% | viability, T/C [22] 0.47% | viability, T/C [23] 1.14% | viability, T/C [24] 0.71% | viability, T/C [25] 0.13% | viability, T/C [26] 0.16% | viability, T/C [27] 0.28% | viability, T/C [28] 0.12% | viability, T/C [29] 0.24% | viability, T/C [30] 0.29% | viability, T/C [31] 0.06% | viability, T/C [32] 0.14% | viability, T/C [33] 0.25% | viability, T/C [34] 0.13% | viability, T/C [35] 0.31% | viability, T/C [36] 0.58%
57.5 nM: IC50 (second compound 0.1 µM)
2010 nM: IC50 (second compound 0.0316 µM)
< 31.6 nM: IC50 (second compound 0.316 µM) | IC50 (second compound 1 µM) | IC50 (second compound 3.16 µM) | IC50 (second compound 10 µM)

COc1cccc2c1C(=O)c1c(O)c3c(c(O)c1C2=O)CC(O)(C(=O)CO)CC3OC1CC(N)C(O)C(C)O1 (stereo unspecified) + CN1CCN(c2cc(C(=O)Nc3cc4cc(-c5cnn(C)c5)ccc4cn3)ccn2)CC1
inactive: viability, T/C [1] 19.4% | viability, T/C [2] 14.4% | viability, T/C [7] 16.9% | viability, T/C [8] 16.5% | viability, T/C [13] 17.8% | viability, T/C [14] 16.2%
< 31.6 nM: IC50 (second compound 0.0316 µM) | IC50 (second compound 0.1 µM) | IC50 (second compound 0.316 µM) | IC50 (second compound 1 µM) | IC50 (second compound 3.16 µM) | IC50 (second compound 10 µM)
active: viability, T/C [3] 8.3% | viability, T/C [4] 0.88% | viability, T/C [5] 0.09% | viability, T/C [6] 0.14% | viability, T/C [9] 8.06% | viability, T/C [10] 0.56% | viability, T/C [11] 0.09% | viability, T/C [12] 0.68% | viability, T/C [15] 4.21% | viability, T/C [16] 0.29% | viability, T/C [17] 0.07% | viability, T/C [18] 0.12% | viability, T/C [19] 0.37% | viability, T/C [20] 0.2% | viability, T/C [21] 0.1% | viability, T/C [22] 0.09% | viability, T/C [23] 0.35% | viability, T/C [24] 0.44% | viability, T/C [25] 0.12% | viability, T/C [26] 0.28% | viability, T/C [27] 0.17% | viability, T/C [28] 0.06% | viability, T/C [29] 0.22% | viability, T/C [30] 0.3% | viability, T/C [31] 0.09% | viability, T/C [32] 0.18% | viability, T/C [33] 0.26% | viability, T/C [34] 0.1% | viability, T/C [35] 0.15% | viability, T/C [36] 0.48%

C=C(F)C(=O)N1CCN(c2nc(OCC3CCCN3C)nc3c2CCN(c2cccc4cccc(Cl)c24)C3)CC1CC#N (stereo unspecified) + CNC(=O)c1ccc(Nc2nc(OC3CCCC3)c3c(-c4ccc5nc(C)oc5c4)c[nH]c3n2)c(OC)c1
< 31.6 nM: IC50 (second compound 0.1 µM) | IC50 (second compound 0.316 µM) | IC50 (second compound 1 µM) | IC50 (second compound 3.16 µM) | IC50 (second compound 10 µM)
active: viability, T/C [6] 0.18% | viability, T/C [18] 0.14% | viability, T/C [24] 0.16% | viability, T/C [29] 14.5% | viability, T/C [30] 0.17% | viability, T/C [35] 14.3% | viability, T/C [36] 0.3%
inactive: viability, T/C [1] 89% | viability, T/C [2] 82.6% | viability, T/C [3] 83.2% | viability, T/C [4] 75.7% | viability, T/C [5] 41.3% | viability, T/C [7] 23.1% | viability, T/C [8] 24.9% | viability, T/C [9] 25.2% | viability, T/C [10] 23.1% | viability, T/C [11] 24.9% | viability, T/C [12] 0.17% | viability, T/C [13] 16.2% | viability, T/C [14] 16.2% | viability, T/C [15] 17.7% | viability, T/C [16] 20.2% | viability, T/C [17] 16.7% | viability, T/C [19] 18% | viability, T/C [20] 17% | viability, T/C [21] 15.3% | viability, T/C [22] 17.6% | viability, T/C [23] 16.4% | viability, T/C [25] 17.5% | viability, T/C [26] 15.3% | viability, T/C [27] 14.6% | viability, T/C [28] 16.4% | viability, T/C [31] 16.7% | viability, T/C [32] 16.8% | viability, T/C [33] 15.5% | viability, T/C [34] 18.6%
2360 nM: IC50 (second compound 0.0316 µM)
